Like-named read-outs stand apart in the source and are kept apart here.
Experiments:
[1] = rats, fasted, IV 5 mg/kg Compound AM-9
Description: Animals were fasted overnight through 4 hours postdose prior to dosing, 4 animals per groups. Individual doses of AM-9 was calculated based on body weights taken on the day of dosing.
(§1) Blood was collected from a jugular vein into tubes containing K2EDTA anticoagulant. Blood (approximately 1 mL) was collected from each animal predose and at 0.167, 0.333, 0.5, 0.667, 0.833 1, 2, 4, and 7 hours postdose and processed for plasma. Plasma samples were evaluated for either AM-9 or amphetamine by LC-MS-MS Mass spectrometer (API 5000 AB Sciex Instruments).

[2] = male Beagle dogs, fasted, PO 0.4 mg/kg
Description: (§2) Male Beagle dogs were fasted overnight through 4 hours postdose. Individual doses of all amphetamine and AM-9 (0.4 mg/kg) were calculated based on body weights taken on the day of each dosing. The liquid formulations were administered via oral gavage, 4 per group. Prior to withdrawing the gavage tube, the tube was flushed with approximately 10 mL of water.
(§3) Blood (approximately 2 mL) was collected from each animal predose and at 0.167, 0.333, 0.5, 0.75, 1, 2, 3, 4, 6, and 8 hours postdose and processed for plasma. Plasma samples were evaluated for amphetamine by LC-MS-MS Mass spectrometer (API 5000 AB Sciex Instruments).

[3] = male Beagle dogs, fasted, PO Compound AM-9
Description: as §2, with “of” for “of all amphetamine and”, “AM-9” for “AM-9 (0.4 mg/kg)”
Blood (approximately 2 mL) was collected from each animal predose and at 0.167, 0.333, 0.5, 0.75, 1, 2, 3, 4, 6, and 8 hours postdose and processed for plasma. Plasma samples were evaluated for AM-9 and amphetamine by LC-MS-MS Mass spectrometer (API 5000 AB Sciex Instruments).

[4] = Plasma amphetamine following PO administration of d-amphetamine, Compound AM-9 and Vyvanse to dogs (Example 7); details: male Beagle dogs, fasted
Description: as §2, with “amphetamine, AM-9” for “all amphetamine”, “Vyvanse” for “AM-9 (0.4 mg/kg)”
as §3

[5] = rats, fasted, IV 10 mg/kg Compound AM-9; 2, 15 and 60 min postdose
Description: The formulation was a clear solution. Animals were fasted overnight through 4 hours postdose prior to dosing, 4 animals per groups. Individual doses of AM-9 was calculated based on body weights taken on the day of dosing.
Blood was collected from a jugular vein into tubes containing K2EDTA anticoagulant. Blood (approximately 1 mL) was collected from each animal predose and at 2, 15 and 60 min postdose and processed for plasma. CSF was obtained at these same time periods. Plasma and CSF samples were evaluated for AM-9 by LC-MS-MS Mass spectrometer (API 5000 AB Sciex Instruments).

[6] = rats, fasted, PO 27.7 mg/kg Compound AM-9
Description: Animals were fasted overnight through 4 hours postdose prior to dosing, 4 animals per groups. Individual doses of AM-9 was calculated based on body weights taken on the day of dosing. […] Prior to withdrawing the gavage tube, the tube was flushed with approximately 2 mL of water.
as §1, with “4, 5,” for “4,”, “and 8” for “and 7”, “for” for “for either”, “AM-9 and” for “AM-9 or”

[7] = Plasma amphetamine following PO Compound AM-9 0.6 mg/kg to rats without and with trypsin inhibitor nafamostat (Example 8); format: in vivo
Description: This example provides a comparison of the immediate release of amphetamine into plasma when Compound AM-9 at a dosage of 0.6 mg/kg is administered PO to fasted rats alone, or with 0.1 and 0.25 mg/kg trypsin inhibitor Nafamostat.
(§4) The formulation was a clear solution. Animals were either fasted overnight through 4 hours postdose or fed ad lib prior to dosing, 4 animals per groups. […] The liquid formulation was administered via oral gavage at […].
FIG. 8A depicts the mean plasma concentration of amphetamine over 8 hours after administration of Compound AM-9 at doses of 0.6 mg/kg alone and in combination with 0.1 mg/kg of Nafamostat and 0.25 mg/kg of Nafamostat. FIG. 8B depicts the mean plasma concentration of amphetamine over the first 2 hours after administration of Compound AM-9 at doses of 0.6 mg/kg alone and in combination with 0.1 mg/kg of Nafamostat and 0.25 mg/kg of Nafamostat.

[8] = Plasma amphetamine following PO Compound AM-9 6 mg/kg to rats without and with trypsin inhibitor nafamostat (Example 9); format: in vivo; details: fasted rats, PO Compound AM-9 6 mg/kg with 1, 2.5, 5 and 10 mg/kg Nafamostat vs alone
Description: This example provides a comparison of the immediate release of amphetamine into plasma when Compound AM-9 at a dosage of 6 mg/kg is administered PO to fasted rats alone, or with 1, 2.5, 5 and 10 mg/kg trypsin inhibitor Nafamostat.
as §4

[9] = fasted rats, PO Compound AM-9 0.6 mg/kg with 0.1 and 0.25 mg/kg Nafamostat vs alone

## CC(=O)NCC(=O)N[C@@H](CCCNC(=N)N)C(=O)N[C@@H](C)Cc1ccccc1 [Compound AM-9, Amphetamine-arginine-glycine-acetate]
[1]
  conversion of AM-9 to amphetamine in the blood: very little conversion of AM-9 to amphetamine in the blood
[2]
  amphetamine Tmax (time to maximum plasma concentration) compared with administration of amphetamine: the same Tmax
[3]
  conversion of administered AM-9 to amphetamine: majority of the administered AM-9 is immediately converted to amphetamine
  peak plasma concentration of AM-9 relative to that of amphetamine: less than half
[4]
  Tmax for peak plasma concentration of amphetamine compared with direct administration of amphetamine: the same as that from direct administration of amphetamine
[5]
  AM-9 crossing from plasma into the CSF: very little AM-9 that crosses from plasma into the CSF
[6]
  conversion of administered AM-9 to amphetamine: majority of the administered AM-9 is immediately converted to amphetamine
  peak plasma concentration (Cmax) of AM-9 relative to peak plasma concentration of amphetamine: approximately half

## CS(=O)(=O)O.CS(=O)(=O)O.C[C@@H](Cc1ccccc1)NC(=O)[C@@H](N)CCCCN [Vyvanse, reference compound]
[4]
  Tmax for peak plasma amphetamine concentration: 2 h

## N=C(N)c1ccc2cc(OC(=O)c3ccc(N=C(N)N)cc3)ccc2c1 [Nafamostat, 6-carbamimidoylnaphthalen-2-yl 4-(diaminomethyleneamino)benzoate]
[7]; [9]
  effect on Cmax of amphetamine release from AM-9: reduces the Cmax
  effect on Tmax of amphetamine release from AM-9: increases the Tmax
[7]; rats, PO Compound AM-9 0.6 mg/kg alone and with 0.1 or 0.25 mg/kg Nafamostat, FIGS. 8A-8B
  effect on release of amphetamine from Compound AM-9 from oral administration: reduces the release of amphetamine
[8]
  effect on Cmax of amphetamine release from AM-9: reduces the Cmax
  effect on Tmax of amphetamine release from AM-9: increases the Tmax
